Values quoted from earlier work as cited in patent publication US20040077591A1, “Histone deacetylase inhibitors for the treatment of multiple sclerosis, amyotrophic lateral sclerosis and Alzheimer's Disease” (The Brigham and Women's Hospital, Inc., priority 2002, published 2004).

Columns and labels:
SMA lymphoid cell lines = conditions: cited from earlier work
SMA-like mice = conditions: cited from earlier work

Question: Which results are given for `CCCC(=O)[O-].[Na+]` [sodium butyrate]?
Answer: amount of exon 7-containing survival motor neuron (SMN) protein (SMA lymphoid cell lines): effective at increasing; expression of SMN protein in spinal cord motor neurons (SMA-like mice; SMA-like mice): increased expression of SMN protein; symptoms (SMA-like mice; SMA-like mice): improved symptoms; birth rate of severe types of SMA-like mice (SMA-like mice; heterozygous knock-out transgenic SMA-like mice bred): decreased the birth rate
